Key:
[1] = tested on: A549; assay: Cytotoxicity against ITK/BTK null human A549 cells assessed as inhibition of cell growth by MTS assay
[2] = tested on: HCT-116; assay: Cytotoxicity against ITK/BTK null human HCT-116 cells assessed as inhibition of cell growth by MTS assay
[3] = tested on: U2OS; assay: Cytotoxicity against ITK/BTK null human U2OS cells assessed as inhibition of cell growth by MTS assay
[4] = tested on: Jurkat; assay: Cytotoxicity against ITK positive human Jurkat cells assessed as inhibition of cell growth by MTS assay
[5] = tested on: CCRF-CEM; assay: Cytotoxicity against ITK positive human CCRF-CEM cells assessed as inhibition of cell growth by MTS assay
[6] = tested on: Ramos; assay: Cytotoxicity against BTK positive human Ramos cells assessed as inhibition of cell growth by MTS assay
[7] = tested on: K562; assay: Cytotoxicity against BTK positive human K562 cells assessed as inhibition of cell growth by MTS assay
[8] = Cytotoxicity against ITK/BTK null human MRC5 cells assessed as inhibition of cell growth by MTS assay; assay type: toxicity, cell-based
[9] = Cytotoxicity against ITK/BTK null human BJ cells assessed as inhibition of cell growth by MTS assay; assay type: toxicity, cell-based
[10] = tested on: CCRF-CEM; assay: Antiproliferative activity against human CCRF-CEM cells; assay type: functional, cell-based
[11] = molecular target: T1, Tyrosine-protein kinase ITK/TSK (Homo sapiens, UniProt Q08881); assay: Inhibition of human ITK using poly (Glu:Tyr) as substrate in presence of ATP by ADP-glo kinase assay
T1 sequence (Q08881 whole entry): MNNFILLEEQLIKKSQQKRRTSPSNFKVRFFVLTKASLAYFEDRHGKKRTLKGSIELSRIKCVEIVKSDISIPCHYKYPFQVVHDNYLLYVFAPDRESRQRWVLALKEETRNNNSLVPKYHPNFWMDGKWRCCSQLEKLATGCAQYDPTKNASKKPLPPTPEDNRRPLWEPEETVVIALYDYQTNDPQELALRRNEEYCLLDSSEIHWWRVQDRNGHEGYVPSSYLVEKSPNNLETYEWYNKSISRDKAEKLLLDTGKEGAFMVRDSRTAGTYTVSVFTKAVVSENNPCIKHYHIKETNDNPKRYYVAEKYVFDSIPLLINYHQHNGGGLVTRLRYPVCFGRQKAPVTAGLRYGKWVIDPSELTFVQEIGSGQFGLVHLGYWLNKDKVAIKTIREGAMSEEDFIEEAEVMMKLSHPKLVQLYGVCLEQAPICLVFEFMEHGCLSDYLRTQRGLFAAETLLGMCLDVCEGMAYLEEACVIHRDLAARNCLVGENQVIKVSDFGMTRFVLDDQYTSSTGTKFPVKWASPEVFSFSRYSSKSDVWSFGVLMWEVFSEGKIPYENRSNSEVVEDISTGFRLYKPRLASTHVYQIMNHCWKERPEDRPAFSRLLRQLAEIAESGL

[12] = tested on: MOLT-4; assay: Antiproliferative activity against human MOLT-4 cells; assay type: functional, cell-based
[13] = tested on: Jurkat; assay: Antiproliferative activity against human Jurkat cells; assay type: functional, cell-based
[14] = tested on: CEM-DNR; assay: Antiproliferative activity against human CEM-DNR cells; assay type: functional, cell-based
[15] = Antiproliferative activity against human K562-Tax cells; assay type: functional, cell-based
[16] = tested on: Ramos; assay: Antiproliferative activity against human Ramos cells; assay type: functional, cell-based

Row | SMILES | IC50 [1] | IC50 [2] | IC50 [3] | IC50 [4] | IC50 [5] | IC50 [6] | IC50 [7] | IC50 [8] | IC50 [9] | IC50 [10] | IC50 [11] | IC50 [12] | IC50 [13] | IC50 [14] | IC50 [15] | IC50 [16]
1 | O=C(N1CCC2(CC1)C(=O)Nc1ncc(-c3ccc4c(c3)OCO4)cc12)C(F)(F)F | > 50 µM | > 50 µM | > 50 µM | 10.8 µM | 20.7 µM | > 50 µM | > 50 µM | > 50 µM | > 50 µM |  |  |  |  |  |  | 
2 | O=C(N1CCC2(CC1)C(=O)Nc1ncc(-c3ccc4c(c3)OCO4)cc12)C1(CF)CC1 |  |  |  |  |  |  |  |  |  | 25.5 µM |  |  |  |  |  | 
3 | CC(F)(F)C(=O)N1CCC2(CC1)C(=O)Nc1ncc(-c3ccc4c(c3)OCO4)cc12 | > 50 µM | > 50 µM | > 50 µM | 3.58 µM | 17.2 µM | 3.06 µM | > 50 µM | > 50 µM | > 50 µM |  | 0.91 µM |  |  |  |  | 
4 | COC(=O)C1(C(=O)N2CCC3(CC2)C(=O)Nc2ncc(-c4cc(OC)c(OC)c(OC)c4)cc23)CC1 |  |  |  |  |  |  |  |  |  | > 50 µM |  | > 50 µM | > 50 µM | > 50 µM | > 50 µM | > 50 µM
5 | O=C(N1CCC2(CC1)C(=O)Nc1ncc(-c3ccc4c(c3)OCO4)cc12)C1(O)CC1 | > 50 µM | > 50 µM | > 50 µM | > 50 µM | > 50 µM | > 50 µM | > 50 µM | > 50 µM | > 50 µM |  |  |  |  |  |  | 
6 | O=C1Nc2ncc(-c3ccc4c(c3)OCO4)cc2C12CCN(S(=O)(=O)C(F)(F)F)CC2 | > 50 µM | > 50 µM | > 50 µM | > 50 µM | > 50 µM | > 50 µM | > 50 µM | > 50 µM | > 50 µM |  |  |  |  |  |  | 
7 | N#CC1(C(=O)N2CCC3(CC2)C(=O)Nc2ncc(-c4ccc5c(c4)OCO5)cc23)CC1 | > 50 µM | > 50 µM | > 50 µM | 50 µM | > 50 µM | 1.42 µM | > 50 µM | > 50 µM | > 50 µM |  |  |  |  |  |  | 
8 | O=C(O)C1(C(=O)N2CCC3(CC2)C(=O)Nc2ncc(-c4ccc5c(c4)OCO5)cc23)CC1 | > 50 µM | > 50 µM | > 50 µM | > 50 µM | > 50 µM | > 50 µM | > 50 µM | > 50 µM | > 50 µM |  |  |  |  |  |  | 
9 | C=CC(=O)N1CCC2(CC1)C(=O)Nc1ncc(-c3ccc4c(c3)OCO4)cc12 | > 50 µM | > 50 µM | > 50 µM | > 50 µM | 13.5 µM | > 50 µM | > 50 µM | > 50 µM | > 50 µM |  |  |  |  |  |  | 
10 | O=C1Nc2ncc(-c3ccc4c(c3)OCO4)cc2C12CCN(C(=O)C1(C(F)(F)F)CC1)CC2 | > 50 µM | > 50 µM | > 50 µM | 29.4 µM | 19.5 µM | 1.82 µM | > 50 µM | > 50 µM | > 50 µM |  |  |  |  |  |  | 
11 | CC(C)(C#N)C(=O)N1CCC2(CC1)C(=O)Nc1ncc(-c3ccc4c(c3)OCO4)cc12 | > 50 µM | > 50 µM | > 50 µM | 9.36 µM | 14.3 µM | 10.1 µM | > 50 µM | > 50 µM | > 50 µM |  |  |  |  |  |  | 
12 | COC(=O)C1(C(=O)N2CCC3(CC2)C(=O)Nc2ncc(-c4ccc5c(c4)OCO5)cc23)CC1 |  |  |  |  |  |  |  |  |  | 15.2 µM |  | 28.8 µM | 14.8 µM | 20.4 µM | 12.5 µM | 23.9 µM
13 | CC(C)(O)C(=O)N1CCC2(CC1)C(=O)Nc1ncc(-c3ccc4c(c3)OCO4)cc12 | > 50 µM | > 50 µM | > 50 µM | > 50 µM | > 50 µM | > 50 µM | > 50 µM | > 50 µM | > 50 µM |  |  |  |  |  |  | 
14 | O=C(N1CCC2(CC1)C(=O)Nc1ncc(-c3ccc4c(c3)OCO4)cc12)C1(F)CC1 |  |  |  |  |  |  |  |  |  | 7.26 µM |  |  | 2.25 µM | 11.9 µM | 6.09 µM | 24.3 µM
15 | CCOC(=O)C(C)(C)C(=O)N1CCC2(CC1)C(=O)Nc1ncc(-c3ccc4c(c3)OCO4)cc12 | > 50 µM | > 50 µM | > 50 µM | 29.2 µM | > 50 µM | > 50 µM | > 50 µM | > 50 µM | > 50 µM |  |  |  |  |  |  | 
16 | C=C(F)C(=O)N1CCC2(CC1)C(=O)Nc1ncc(-c3ccc4c(c3)OCO4)cc12 | > 50 µM | > 50 µM | 18.9 µM | 4.16 µM | 14.1 µM | 1.38 µM | > 50 µM | > 50 µM | > 50 µM |  | > 10 µM |  |  |  |  | 
17 | CC(C)(F)C(=O)N1CCC2(CC1)C(=O)Nc1ncc(-c3ccc4c(c3)OCO4)cc12 |  |  |  |  |  |  |  |  |  | 3.79 µM |  |  | 2.49 µM | 6.01 µM | 3.68 µM | 16.4 µM
18 | C=CC(=O)N1CCC[C@@H](n2nc(-c3ccc(Oc4ccccc4)cc3)c3c(N)ncnc32)C1 [IBRUTINIB] |  |  |  |  |  |  |  | 27.9 µM | 28.9 µM |  |  |  |  |  |  | 

Source: ChEMBL document CHEMBL6115013, “Design, synthesis, and biological evaluation of novel azaspirooxindolinone derivatives as potent inhibitors of ITK and BTK-dependent cancers” (Bioorg Med Chem, 2025)
